Where a name gives a salt, the structure may show the parent alone. Read-outs that look alike come from different tables or passages of the source.
Molecular target: purified human Factor XIa (Homo sapiens (Human), UniProt P03951)
Assay: biochemical
Assay type: biochemical
Settings: read-out: Factor XIa Ki

purified human Factor XIa, sequence (P03951 whole entry, looked up): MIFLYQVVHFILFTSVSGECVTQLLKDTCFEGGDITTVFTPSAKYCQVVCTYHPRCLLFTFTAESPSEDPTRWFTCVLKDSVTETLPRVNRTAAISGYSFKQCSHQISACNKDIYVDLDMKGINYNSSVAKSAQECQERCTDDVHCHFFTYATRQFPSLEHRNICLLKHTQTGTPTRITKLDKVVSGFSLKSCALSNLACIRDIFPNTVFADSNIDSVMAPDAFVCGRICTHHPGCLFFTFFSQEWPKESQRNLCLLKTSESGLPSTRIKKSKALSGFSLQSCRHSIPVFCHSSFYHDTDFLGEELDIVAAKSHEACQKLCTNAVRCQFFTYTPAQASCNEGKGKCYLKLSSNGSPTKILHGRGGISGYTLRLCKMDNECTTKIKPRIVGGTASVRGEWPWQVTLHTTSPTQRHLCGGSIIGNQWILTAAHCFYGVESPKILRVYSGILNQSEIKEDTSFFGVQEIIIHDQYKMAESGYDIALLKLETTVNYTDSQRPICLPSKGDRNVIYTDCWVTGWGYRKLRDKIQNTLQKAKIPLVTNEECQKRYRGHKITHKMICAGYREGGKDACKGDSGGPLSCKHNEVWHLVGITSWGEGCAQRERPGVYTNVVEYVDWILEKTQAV
purified human Factor XIa, sequence (P03951 whole entry partner, looked up): as the sequence (P03951 whole entry, looked up) above

SMILES | Ki (TFA salt) | Ki
CC1CCCC(N2CCC(c3c(F)ccc(Cl)c3F)=CC2=O)c2cc(ccn2)-c2ccc(C#N)cc2NC1=O (stereo in doubt) [Example 23, (14R)-14-[4-(3-Chloro-2,6-difluorophenyl)-6-oxo-1,2,3,6-tetrahydropyridin-1-yl]-10-methyl-9-oxo-8,16-diazatricyclo[13.3.1.0^2,7]nonadeca-1(18),2,4,6,15(19),16-hexaene-5-carbonitrile, TFA salt] | 93.2 nM | 
C[C@@H]1CCC[C@H](N2CCC(c3c(F)ccc(Cl)c3F)=CC2=O)c2cc(ccn2)-c2ccc(N)cc2NC1=O [Example 12, (10R,14S)-5-Amino-14-[4-(3-chloro-2,6-difluorophenyl)-6-oxo-1,2,3,6-tetrahydropyridin-1-yl]-10-methyl-8,16-diazatricyclo[13.3.1.0^2,7]nonadeca-1(19),2,4,6,15,17-hexaen-9-one] |  | 1.5 nM
C[C@@H]1CCC[C@H](N2CCC(c3c(F)ccc(Cl)c3F)=CC2=O)c2cc(ccn2)-c2ccc(F)cc2NC1=O [Example 14, (10R,14S)-14-[4-(3-Chloro-2,6-difluorophenyl)-6-oxo-1,2,3,6-tetrahydropyridin-1-yl]-5-fluoro-10-methyl-8,16-diazatricyclo[13.3.1.0^2,7]nonadeca-1(19),2,4,6,15,17-hexaen-9-one, TFA salt] |  | 34.8 nM
C[C@@H]1CCC[C@H](N2CCC(c3c(F)ccc(Cl)c3F)=CC2=O)c2cc(ccn2)-c2ccc(O)cc2NC1=O [Example 18, (10R,14S)-14-[4-(3-Chloro-2,6-difluorophenyl)-6-oxo-1,2,3,6-tetrahydropyridin-1-yl]-5-hydroxy-10-methyl-8,16-diazatricyclo[13.3.1.0^2,7]nonadeca-1(19),2,4,6,15,17-hexaen-9-one, TFA salt] |  | 1.25 nM
CC(=O)c1ccc(Cl)c(F)c1C1=CC(=O)N([C@H]2CCCC(C)C(=O)Nc3cc(C(N)=O)ccc3-c3ccnc2c3)CC1 (stereo partly drawn) [Example 34, (14S)-14-[4-(6-Acetyl-3-chloro-2-fluorophenyl)-6-oxo-1,2,3,6-tetrahydropyridin-1-yl]-10-methyl-9-oxo-8,16-diazatricyclo[13.3.1.0^2,7]nonadeca-1(19),2,4,6,15,17-hexaene-5-carboxamide, TFA salt] |  | 4.17 nM
CC1CCC[C@H](N2CCC(c3cccc(Cl)c3F)=CC2=O)c2cc(ccn2)-c2ccc(C(N)=O)cc2NC1=O (stereo partly drawn) [Example 35, (14S)-14-[4-(3-Chloro-2-fluorophenyl)-6-oxo-1,2,3,6-tetrahydropyridin-1-yl]-10-methyl-9-oxo-8,16-diazatricyclo[13.3.1.0^2,7]nonadeca-1(19),2,4,6,15,17-hexaene-5-carboxamide, TFA salt] |  | 104 nM
CCOC(=O)Cc1nnc(Nc2ccc3c(c2)NC(=O)[C@H](C)CCC[C@H](N2CCC(c4c(F)ccc(Cl)c4F)=CC2=O)c2cc-3ccn2)o1 [Example 42, Ethyl 2-(5-{[(10R,14S)-14-[4-(3-chloro-2,6-difluorophenyl)-6-oxo-1,2,3,6-tetrahydropyridin-1-yl]-10-methyl-9-oxo-8,16-diazatricyclo[13.3.1.0^2,7]nonadeca-1(19),2,4,6,15,17-hexaen-5-yl]amino}-1,3,4-oxadiazol-2-yl)acetate, TFA salt] |  | 0.45 nM
COC(=O)Nc1ccc2c(c1)NC(=O)[C@H](C)CCC[C@H](N1CCC(c3cc(Cl)ccc3OC(F)F)=CC1=O)c1cc-2ccn1 [Example 44, Methyl N-[(10R,14S)-14-{4-[5-chloro-2-(difluoromethoxy)phenyl]-6-oxo-1,2,3,6-tetrahydropyridin-1-yl}-10-methyl-9-oxo-8,16-diazatricyclo[13.3.1.0^2,7]nonadeca-1(19),2,4,6,15,17-hexaen-5-yl]carbamate, TFA salt] |  | 0.13 nM
CC(=O)c1ccc(Cl)c(F)c1C1=CC(=O)N([C@H]2CCC[C@@H](C)C(=O)Nc3ccccc3-c3ccnc2c3)CC1 [Example 48, (10R,14S)-14-[4-(6-Acetyl-3-chloro-2-fluorophenyl)-6-oxo-1,2,3,6-tetrahydropyridin-1-yl]-10-methyl-8,16-diazatricyclo[13.3.1.0^2,7]nonadeca-1(19),2,4,6,15,17-hexaen-9-one, TFA salt] |  | 4.77 nM
C[C@@H]1CCC[C@H](N2CCC(c3c(F)ccc(Cl)c3F)=CC2=O)c2cc(ccn2)-c2ccc(NC(=O)OCCOC(C)(C)C)cc2NC1=O [Example 53, 2-(tert-Butoxy)ethyl N-[(10R,14S)-14-[4-(3-chloro-2,6-difluorophenyl)-6-oxo-1,2,3,6-tetrahydropyridin-1-yl]-10-methyl-9-oxo-8,16-diazatricyclo[13.3.1.0^2,7]nonadeca-1(19),2,4,6,15,17-hexaen-5-yl]carbamate, TFA salt] |  | 0.08 nM
C[C@@H]1CCC[C@H](N2CCC(c3c(F)ccc(Cl)c3F)=CC2=O)c2cc(ccn2)-c2cc(I)c(N)cc2NC1=O [Example 61, (10R,14S)-5-Amino-14-[4-(3-chloro-2,6-difluorophenyl)-6-oxo-1,2,3,6-tetrahydropyridin-1-yl]-4-iodo-10-methyl-8,16-diazatricyclo[13.3.1.0^2,7]nonadeca-1(19),2,4,6,15,17-hexaen-9-one, TFA salt] |  | 24.6 nM
C[C@@H]1CCC[C@H](N2CCC(c3c(C(F)(F)F)ccc(Cl)c3F)=CC2=O)c2cc(ccn2)-c2ccccc2NC1=O [Example 67, (10R,14S)-14-{4-[3-Chloro-2-fluoro-6-(trifluoromethyl)phenyl]-6-oxo-1,2,3,6-tetrahydropyridin-1-yl}-10-methyl-8,16-diazatricyclo[13.3.1.0^2,7]nonadeca-1(19),2(7),3,5,15,17-hexaen-9-one, TFA salt] |  | 2.98 nM
C[C@@H]1CCC[C@H](N2CCC(c3c(-n4cnnn4)ccc(Cl)c3F)=CC2=O)c2cc(ccn2)-c2ccccc2NC1=O [Example 68, (10R,14S)-14-{4-[3-Chloro-2-fluoro-6-(1H-1,2,3,4-tetrazol-1-yl)phenyl]-6-oxo-1,2,3,6-tetrahydropyridin-1-yl}-10-methyl-8,16-diazatricyclo[13.3.1.0^2,7]nonadeca-1(19),2(7),3,5,15,17-hexaen-9-one, TFA salt] |  | 0.05 nM
CC(=O)Nc1ccc2c(c1)NC(=O)[C@H](C)CCC[C@H](N1CCC(c3c(F)ccc(Cl)c3F)=CC1=O)c1cc-2ccn1 [Example 75, N-[(10R,14S)-14-[4-(3-Chloro-2,6-difluorophenyl)-6-oxo-1,2,3,6-tetrahydropyridin-1-yl]-10-methyl-9-oxo-8,16-diazatricyclo[13.3.1.0^2,7]nonadeca-1(19),2(7),3,5,15,17-hexaen-5-yl]acetamide, TFA salt] |  | 3.54 nM
C[C@@H]1CCC[C@H](N2CCC(c3c(F)ccc(Cl)c3F)=CC2=O)c2cc(ccn2)-c2ccc(NS(C)(=O)=O)cc2NC1=O [Example 76, N-[(10R,14S)-14-[4-(3-Chloro-2,6-difluorophenyl)-6-oxo-1,2,3,6-tetrahydropyridin-1-yl]-10-methyl-9-oxo-8,16-diazatricyclo[13.3.1.0^2,7]nonadeca-1(19),2(7),3,5,15,17-hexaen-5-yl]methanesulfonamide, TFA salt] |  | 7.89 nM
C[C@@H]1CCC[C@H](N2CCC(c3c(F)ccc(Cl)c3F)=CC2=O)c2cc(ccn2)-c2ccc(NC(=O)CC(=O)OC(C)(C)C)cc2NC1=O [Example 87, tert-Butyl 2-{[(10R,14S)-14-[4-(3-chloro-2,6-difluorophenyl)-6-oxo-1,2,3,6-tetrahydropyridin-1-yl]-10-methyl-9-oxo-8,16-diazatricyclo[13.3.1.0^2,7]nonadeca-1(19),2,4,6,15,17-hexaen-5-yl]carbamoyl}acetate, TFA salt] |  | 17.3 nM
C[C@@H]1CCC[C@H](n2ccc(-c3c(F)ccc(Cl)c3F)cc2=O)c2cc(ccn2)-c2ccc(N)cc2NC1=O [Example 91, (10R,14S)-5-Amino-14-[4-(3-chloro-2,6-difluorophenyl)-2-oxo-1,2-dihydropyridin-1-yl]-10-methyl-8,16-diazatricyclo[13.3.1.0^2,7]nonadeca-1(19),2,4,6,15,17-hexaen-9-one, 2 TFA salt] |  | 0.56 nM
C[C@@H]1CCC[C@H](n2ccc(-c3c(F)ccc(Cl)c3F)cc2=O)c2cc(ccn2)-c2ccc(Nc3ncccn3)cc2NC1=O [Example 92, (10R,14S)-14-[4-(3-Chloro-2,6-difluorophenyl)-2-oxo-1,2-dihydropyridin-1-yl]-10-methyl-5-[(pyrimidin-2-yl)amino]-8,16-diazatricyclo[13.3.1.0^2,7]nonadeca-1(19),2(7),3,5,15,17-hexaen-9-one, 2 TFA salt] |  | 0.56 nM
COC(=O)Nc1ccc2c(c1)NC(=O)[C@H](C)CCC[C@H](N1CCC(c3cncn3C)=CC1=O)c1cc-2ccn1 [Example 97, Methyl N-[(10R,14S)-10-methyl-14-[4-(1-methyl-1H-imidazol-5-yl)-6-oxo-1,2,3,6-tetrahydropyridin-1-yl]-9-oxo-8,16-diazatricyclo[13.3.1.0^2,7]nonadeca-1(19),2,4,6,15,17-hexaen-5-yl]carbamate, 2 TFA salt] |  | > 408 nM
CC(C)[C@@H]1CCC[C@H](N2CCC(c3c(-n4cnnn4)ccc(Cl)c3F)=CC2=O)c2cc(ccn2)-c2ccccc2NC1=O [Example 100, (10S,14S)-14-{4-[3-chloro-2-fluoro-6-(1H-1,2,3,4-tetrazol-1-yl)phenyl]-6-oxo-1,2,3,6-tetrahydropyridin-1-yl}-10-(propan-2-yl)-8,16-diazatricyclo[13.3.1.0^2,7]nonadeca-1(18),2,4,6,15(19),16-hexaen-9-one, TFA salt] |  | 0.09 nM
COC(=O)Nc1ccc2c(c1)NC(=O)[C@H](C)CCC[C@H](N1CCC(c3cncn3Cc3ccccc3)=CC1=O)c1cc-2ccn1 [Example 101, Methyl N-[(10R,14S)-14-[4-(1-benzyl-1H-imidazol-5-yl)-6-oxo-1,2,3,6-tetrahydropyridin-1-yl]-10-methyl-9-oxo-8,16-diazatricyclo[13.3.1.0^2,7]nonadeca-1(19),2,4,6,15,17-hexaen-5-yl]carbamate, bis TFA salt] |  | > 434 nM
C[C@@H]1CCC[C@H](N2CCC(c3c(F)ccc(Cl)c3F)=CC2=O)c2cc(ccn2)-c2ccc(Nc3nnc(-c4ccco4)o3)cc2NC1=O [Example 103, (10R,14S)-14-[4-(3-Chloro-2,6-difluorophenyl)-6-oxo-1,2,3,6-tetrahydropyridin-1-yl]-5-{[5-(furan-2-yl)-1,3,4-oxadiazol-2-yl]amino}-10-methyl-8,16-diazatricyclo[13.3.1.0^2,7]nonadeca-1(19),2(7),3,5,15,17-hexaen-9-one, TFA salt] |  | 6.13 nM
